The record followed here is patent publication US12351651B2, “Polypeptide for repairing mucosal damage or skin wound and use thereof” (Sichuan Gooddoctor Panxi Pharmaceutical Co., Ltd., priority 2020, dated 2025).

“And” between values parts separate entries of the source, which are not always exact repeats. Identical values can stand only once. Marks after values point to notes of the source that are not given here. No end group written: not given here.

Data set [1] has as its system ethanol-induced gastric ulcer model in mice. The data set can be described thus: Anti-ulcer activity of single administration in ethanol-induced model in mice. It counts as in vivo, C57BL/6 mice. Conditions: single administration by gavage, 0.2 mg/kg, 1 h before absolute ethanol; relative to compound of SEQ ID NO: 1. On the procedure:
1. Experimental animal: SPF grade C57BL/6 mice, from Chengdu Yaokang Shengwu Keji Youxian Gongsi, animal license number: SCXK (Chuan) 2020-034.
After adaptive feeding, all the animals were fasted for 24 h with free access to water after administration one day before the experiment. Before modeling, the experimental mice were randomly divided into groups: blank group (5 mice), model group (10 mice), and treatment groups (10 mice per group). Except for the blank group and the model group, which were given sterile water by gavage, the treatment groups were administered with different test compounds by gavage at a dose of 0.2 mg/kg, respectively. One hour after administration, the mice received 0.9 ml/kg absolute ethanol by oral gavage for modeling. After 1 h, the animals were sacrificed by cervical dislocation, the gastric cardia was ligated, the pylorus was occluded, and the whole stomach was removed. 1 mL of 1% formaldehyde solution was injected into the gastric lumen, the cardia was ligated, and the stomach was taken out and immediately immersed in 1% formaldehyde solution. After 30 min, the stomach tissue was taken out and cut open along the greater curvature. The content of the stomach was rinsed off with normal saline, the injury of gastric mucosa in mice were observed and measured after being laid flat, and the ulcer index and ulcer inhibition rate were calculated.
Calculation method for ulcer index: If the length of cord-like injury was greater than 1 mm, the length thereof was measured, with 1 point per millimeter; if the width thereof was greater than 1 mm, the score thereof was doubled according to the number of millimeters of the width; and if the length was less than 1 mm, a score of 0.5 was given, and the scores were added to obtain the ulcer index of the animal. • Ulcer inhibition rate=(ulcer index of model group-ulcer index of treatment group)/ulcer index of model group*100%; and • Relative ulcer inhibition rate=(ulcer inhibition rate of test compound)/(ulcer inhibition rate of Compound 1).

Data set [2] in a line: Gastric and intestinal stability test of polypeptide samples. The class given is in vitro ADME. Conditions: 37° C., 1 hour, HPLC peak area; for W Retained %: artificial gastric juice (W); for X Retained %: artificial intestinal juice (X); for O Retained %: hydrogen peroxide solution (O); for I Retained %: povidone-iodine solution (I). On the procedure: Method: 1 mg of each of the samples to be tested (Compounds 1, 26, 27 and 28 and EGF) were taken and dissolved in 1 ml of water. 100 ul of sample solution was taken, 900 ul of water was added, and they were uniformly mixed, as a control solution. 100 ul of each sample solution was taken, and 900 ul of artificial gastric juice (W), artificial intestinal juice (X), povidone-iodine solution (I), and hydrogen peroxide solution (O) were respectively added. The solution was placed in a constant temperature water bath at 37° C. for 1 hour, and left to stand for cooling and filtering, as a test solution. The peak areas of the sample before and after treatment were respectively detected by high performance liquid chromatography, and the experimental results were compared based on the peak areas of the samples. The original solution without any treatment after being diluted with water was used as a control, and the changes in the peak areas (contents) of test solutions at corresponding positions were compared and counted.

The subject of data set [3] is subintestinal vascular branches of zebrafish. The data set can be described thus: Repair of simvastatin-induced vascular injury in zebrafish. It counts as in vivo. To be noted: 500 ng/fish intravenous injection, 28° C., 2 days. The source says: Method: The blood vessels of transgenic vascular green fluorescent zebrafish (Fli-1) were labeled by green fluorescent protein, which was clearly visible under a fluorescence microscope (FIG. 9, the dotted frame in FIG. 9 (yellow in the original picture) was the intestinal blood vessel at the analysis site, and the arrow (white in the original picture) pointed to subintestinal vascular branches), and it became a model organism for observing vascular change. Zebrafish Fli-1 was naturally mated in pairs for breeding. Zebrafish Fli-1 was randomly selected and placed in a 6-well plate one day after fertilization, with 30 fish per well (experimental group). The zebrafish in the normal control group were treated with standard dilution water, and each of the other experimental groups was induced with aqueous simvastatin for 3 hours to establish a zebrafish microvascular loss model. After 3 hours, the aqueous solutions in all the groups were replaced with standard dilution water, and simvastatin induction was terminated. […] Ten zebrafish in each group were randomly selected and photographed under the fluorescence microscope. NIS-Elements D 3.20 advanced image processing software was used for analysis and data collection, and the number of subintestinal vascular branches was analyzed.

Data set [4] relates to aspirin-induced gastric ulcer in rats. The data set can be described thus: Aspirin-induced gastric ulcer in rats. It counts as in vivo, SD rats. On the procedure:
Method: After adaptive feeding, SD rats were divided into three groups (10 rats in each group) by Excel-based complete randomization, namely, a control group, a model group, and a the compound of SEQ ID NO: 1 (0.3 mg/kg) group. After the animals were grouped, they were given corresponding treatments (the control group and the model group were given the same volume of purified water, and the SEQ ID NO: 1 group was given corresponding drug treatment) once a day for 8 consecutive days. On the 7th day after administration, all the animals were fasted for 24 h with free access to water. On the 8th day, except for the control group, the rats in the SEQ ID NO: 1 group and the model group were orally given 250 mg/kg aspirin solution for modeling 30 min after compound administration (or given water). 4 h after modeling, the animals were sacrificed, the cardia was ligated, the pylorus was occluded, and the whole stomach was removed. 8 mL of 1% formaldehyde solution was injected into the gastric lumen, the pylorus was ligated, and the stomach was taken out and immediately immersed in 1% formaldehyde solution for fixation. After 30 min, the stomach was cut open along the greater curvature, the content of the stomach was cleaned off with normal saline, and after the stomach was laid flat, the stomach was observed, and panoramic photos were taken to measure the ulcer area.

In data set [5] the test system is ethanol-induced gastric ulcer in mice. The data set can be described thus: Ethanol-induced gastric ulcer in mice, administration once a day for 8 days. It counts as in vivo, C57BL/6 mice. Conditions: absolute ethanol, gavage once a day for 8 days, SEQ ID NO: 1 1 mg/kg, teprenone 160 mg/kg, n = 10, x ± s. As for the experimental part:
1. Experimental animal: SPF grade C57BL/6 mice, from Chengdu Yaokang Biotechnology Ltd, animal license number: SCXK (Chuan) 2020-034.
2. Method: After adaptive feeding, the mice were randomly divided into four groups with 10 mice in each group, namely, control group (normal group), model group (modeling with absolute ethanol), positive drug group (teprenone 160 mg/kg) and SEQ ID NO: 1 group (1 mg/kg). After the animals were grouped, the control group and model group were treated with pure water, and the other dosed groups were treated with the corresponding drugs once a day for 8 consecutive days. On the 7th day, after treatment, all the animals were fasted for 24 h with free access to water. […] The stomach was cut open along the greater curvature, the content of the stomach was cleaned off with normal saline, and the ulcer index was calculated after being laid flat. Calculation method for ulcer index: If the length of cord-like injury was greater than 1 mm, the length thereof was measured, with 1 point per millimeter; if the width thereof was greater than 1 mm, the score thereof was doubled according to the number of millimeters of the width; and if the length was less than 1 mm, a score of 0.5 was given, and the scores were added up to obtain the ulcer index of the animal.

AEPVPL [SEQ ID NO: 30]: the “Anti-ulcer activity (mean relative ulcer inhibition rate)” value in data set [1] is “+++ (relative ulcer inhibition rate 0.9-1.20, denoted as “+++”)”.
Consider AEPVPLVKQD [SEQ ID NO: 27], for which, in data set [2], the “W Retained %” value was 100% and 97%; the “X Retained %” value came out at 0%; the “O Retained %” value was 100% and 101%; the “I Retained %” value amounted to 100%. In data set [1], the “Anti-ulcer activity (mean relative ulcer inhibition rate)” value is recorded as “+++ (relative ulcer inhibition rate 0.9-1.20, denoted as “+++”)”.
Take Ala-Glu-Pro-Val (AEPV) [SEQ ID NO: 45]: the “Anti-ulcer activity (mean relative ulcer inhibition rate)” value in data set [1] is “− (relative ulcer inhibition rate <0, denoted as “−”)”.
For “Ala-Glu-Pro-Val-Pro (AEPVP) [SEQ ID NO: 44]”, the “Anti-ulcer activity (mean relative ulcer inhibition rate)” value in data set [1] is “+ (relative ulcer inhibition rate 0.3-0.6, denoted as “+”)”.
In the case of EPVPLVKQD [SEQ ID NO: 38], the “Anti-ulcer activity (mean relative ulcer inhibition rate)” value in data set [1] was “+++ (relative ulcer inhibition rate 0.9-1.20, denoted as “+++”)”.
For “Glu-Pro-Val-Pro-Leu (EPVPL) [SEQ ID NO: 31]”, the “Anti-ulcer activity (mean relative ulcer inhibition rate)” value in data set [1] is on record as “+++ (relative ulcer inhibition rate 0.9-1.20, denoted as “+++”)”.
On the same count and under the same terms, under PAADPVPLVKQD [SEQ ID NO: 11] stands “++ (relative ulcer inhibition rate 0.6-0.9, denoted as “++”)”; under PAAEGVGLVKQD [SEQ ID NO: 8], “+ (relative ulcer inhibition rate 0.3-0.6, denoted as “+”)”.
PAAEPV [SEQ ID NO: 34]: in data set [1], the “Anti-ulcer activity (mean relative ulcer inhibition rate)” value is on record as “/ (0< relative ulcer inhibition rate <0.3, denoted as “/” (very low activity))”.
The same measure, in the same setting: the value for PAAEPVPFVKQD [SEQ ID NO: 12] was “/ (0< relative ulcer inhibition rate <0.3, denoted as “/” (very low activity))”.
Turning to PAAEPVPL [SEQ ID NO: 26], in data set [2], the “W Retained %” value worked out at 100%; the “O Retained %” value was 100% and 102%; the “I Retained %” value is 100% and 101%. Besides, the “subintestinal microvascular loss caused by simvastatin / number of subintestinal vascular branches” value in data set [3] is recorded as “significantly reverse”. In addition, in data set [1], the “Anti-ulcer activity (mean relative ulcer inhibition rate)” value was “+++ (relative ulcer inhibition rate 0.9-1.20, denoted as “+++”)”.
In the case of PAAEPVPLIKQD [SEQ ID NO: 64], the “Anti-ulcer activity (mean relative ulcer inhibition rate)” value in data set [1] is “+ (relative ulcer inhibition rate 0.3-0.6, denoted as “+”)”.
For the substance PAAEPVPLVK [SEQ ID NO: 3], the “Anti-ulcer activity (mean relative ulcer inhibition rate)” value in data set [1] was “+++ (relative ulcer inhibition rate 0.9-1.20, denoted as “+++”)”.
For PAAEPVPLVKED [SEQ ID NO: 57], the “Anti-ulcer activity (mean relative ulcer inhibition rate)” value in data set [1] is “++ (relative ulcer inhibition rate 0.6-0.9, denoted as “++”)”.
For PAAEPVPLVKND [SEQ ID NO: 58], the “Anti-ulcer activity (mean relative ulcer inhibition rate)” value in data set [1] is “/ (0< relative ulcer inhibition rate <0.3, denoted as “/” (very low activity))”.
Take “PAAEPVPLVKQD [SEQ ID NO: 1, Pro-Ala-Ala-Glu-Pro-Val-Pro-Leu-Val-Lys-Gln-Asp]”: the weight change result in data set [4] (0.3 mg/kg oral gavage once a day for 8 consecutive days) is “no obvious effects”.
On to PAAEPVPLVKQE [SEQ ID NO: 60], for which the “Anti-ulcer activity (mean relative ulcer inhibition rate)” value in data set [1] is recorded as “+ (relative ulcer inhibition rate 0.3-0.6, denoted as “+”)”.
On the same count and under the same terms, the value for PAAEPVPLVKQN [SEQ ID NO: 50] was “/ (0< relative ulcer inhibition rate <0.3, denoted as “/” (very low activity))”; that for PAAQPVPLVKQD [SEQ ID NO: 10] was “++++ (Relative ulcer inhibition rate >1.20, denoted as “++++”)”.
In the case of PAAVPVPLVKQD [SEQ ID NO: 67], in data set [1], the “Anti-ulcer activity (mean relative ulcer inhibition rate)” value is given as “+ (relative ulcer inhibition rate 0.3-0.6, denoted as “+”)”.
On the same count and under the same terms, the value for PAGEPVPLVKQD [SEQ ID NO: 48] was “++ (relative ulcer inhibition rate 0.6-0.9, denoted as “++”)”; that for PIAEPVPLVKQD [SEQ ID NO: 56] was “− (relative ulcer inhibition rate <0, denoted as “−”)”.
Take PVPLVKQD [SEQ ID NO: 28]: in data set [2], the “W Retained %” value is 100% and 96%; the “X Retained %” value is reported as 0%; the “O Retained %” value was 100% and 99%; the “I Retained %” value was 100% and 99%. Also, in data set [1], the “Anti-ulcer activity (mean relative ulcer inhibition rate)” value is “+++ (relative ulcer inhibition rate 0.9-1.20, denoted as “+++”)”.
For “Pro-Ala-Ala-Glu-Pro (PAAEP) [SEQ ID NO: 35]”, the “Anti-ulcer activity (mean relative ulcer inhibition rate)” value in data set [1] is given as “+ (relative ulcer inhibition rate 0.3-0.6, denoted as “+”)”.
On the same count and under the same terms, the value for Pro-Val-Pro-Leu (PVPL) [SEQ ID NO: 32] was “+++ (relative ulcer inhibition rate 0.9-1.20, denoted as “+++”)”.
As for SEQ ID NO. 1 (PAAEPVPLVKQD), the Ulcer area in data set [4] (rats, 0.3 mg/kg gavage once a day for 8 days, aspirin 250 mg/kg) is 20.55 ± 10.45** mm^2.
On to Val-Pro-Leu-Val (VPLV) [SEQ ID NO: 73], for which, in data set [1], the “Anti-ulcer activity (mean relative ulcer inhibition rate)” value is reported as “++ (relative ulcer inhibition rate 0.6-0.9, denoted as “++”)”.
teprenone gave a Ulcer index in data set [5] of 13.42 ± 7.61.
